Experimental findings from patent publication US20250186411A1, “Methods of Treating Disorders Associated with Overactivation of IKKB” (The United States Government as represented by the …, priority 2023, published 2025) are described below.

Read-outs that look alike come from different tables or passages of the source.

Broadly, the EC50 is the concentration that produces a half-maximal response.

Assay [1] relates to KLF15 promoter (pEZX-FR03hKLF15p human podocytes). The experiment in a line: Half maximal effective concentration (EC50) of KLF15 reporter activity. It counts as cell-based. The method, then: The EC50 was determined using nonlinear regression and then choosing the equation of Sigmoidal function, 4PL method (X is log(concentration); or the equation of log(agonist) vs. response—variable slope).
(§1) To identify small molecule inducers of KLF15 expression in human podocytes, human podocytes were generated with a dual reporter, firefly luciferase directed at the KLF15 promoter region and renilla luciferase (pEZX-FR03hKLF15p). […] The positive controls were inducers of KLF15 expression, dexamethasone (DEX) and all-trans retinoic acid (atRA), and […] and cell-free wells served as negative controls.

For assay [2] the test system is unchanged. Description: KLF15 reporter high-throughput screening assay in human podocytes (firefly/renilla luciferase). It is filed as cell-based. Conditions: for fold induction at 1 µM: Homo sapiens, read-out: Fold Change (KLF15 reporter activity). As for the experimental part: Briefly, these podocytes proliferate under permissive conditions (gamma interferon at 33° C.), but differentiate under nonpermissive conditions (37° C.).
The amplified fragment contains MluI and PmeI RE sites and was subcloned into the MluI and PmeI cloning site of the pEZX-FR03 Firefly luciferase (FLuc) and Renilla luciferase (Rluc) reporter cloning vector (GeneCopoeia) to generate pEZX-FR03hKLF15p. Following verification of the sequence by restriction and μsequencing, the pEZX-FR03hKLF15p construct (which contains a puromycin resistance cassette) was transfected into human podocytes followed by selection in puromycin-containing media for 2 weeks. Surviving podocytes clones were pooled together for further analysis.
The library of compounds from the National Cancer Institute (Approved Oncology Drugs Set VI; Natural Products Set III; Diversity Set V; and Mechanistic Diversity Set II) were added to a final concentration of 1 μM in 0.5% DMSO in the low FBS cell culture media (0.2% FBS) using liquid handling system PipetMax (Gilson). After 24 hours incubation at 37° C., the Luc-Pair™ Duo-Luciferase HT Assay Kit (GeneCopoeia LF015) were used and firefly and renilla luciferase activity was determined using the SpectraMax M3 (Molecular Devices). Positive controls were all-trans retinoic acid (atRA) (1 μM) and dexamethasone (DEX) (1 μM). Negative controls were DMSO and cell-free media.
as §1

[3] abbreviates: KLF15 reporter activity, dose-response, read-out: EC50.
Setting [4] is: NCI library hits, 1 μM, 24 hours.
The mark [5] stands for this setting: Homo sapiens, KLF15 reporter activity, dose-response, read-out: EC50.

Take “2-[2-[(2E)-2-[(5Z)-5-(anilinomethylene)-3-ethyl-4-oxo-thiazolidin-2-ylidene[hydrazino]thiazol-5-yl]-N-(o-tolyl)acetamide [C-26]”: the EC50 in assay [1] (setting [3]) came to 484 nM. Moreover, the “Fold Change (KLF15 reporter activity)” value in assay [2] (setting [4]) turned out to be 3.0168 fold.
On to “5-Methylbenzo[c]phenanthridin-5-ium-2,3,8,9-tetrol; pyridine; chloride; hydrochloride [C-23]”, for which the EC50 in assay [1] (setting [3]) worked out at 296 nM. Besides, the “Fold Change (KLF15 reporter activity)” value in assay [2] (setting [4]) turned out to be 3.0541 fold.
As to `Oc1ccc(-c2nc3ccccc3s2)cc1` [C-1, Phenol,4-(2-benzothiazolyl)], in assay [1] (setting [3]), the EC50 was found to be 99.6 nM. In addition, in assay [2] (setting [4]), the “Fold Change (KLF15 reporter activity)” value turned out to be 3.0083 fold.
For `Nc1ccc2c(c1)CN1C(=O)c3ccccc3C1=N2` [C-2, Batracyclin], the EC50 in assay [1] (setting [5]) turned out to be 14.9 nM. In assay [2] (setting [4]), the fold induction at 1 µM turned out to be 3.07.
As to `CN(C)c1ccc(/C=C2\C=Cc3ccccc32)cc1` [C-3, [(4-Dimethylamino)benzylidene]indene], in assay [1] (setting [3]), the EC50 is 17.7 nM. Also, in assay [2] (setting [4]), the “Fold Change (KLF15 reporter activity)” value was 2.6455 fold.
As for `CN(C)c1cccc(C=C(C#N)c2ccccc2)c1` [C-4, 2-Propenenitrile, 3-[3-(dimethylamino)phenyl]-2-phenyl-], the EC50 in assay [1] (setting [5]) amounted to 23.7 nM. In assay [2] (setting [4]), the fold induction at 1 µM was 2.57.
For `COc1ccc2[nH]c(-c3ccccc3)cc2c1` [C-5, 5-methoxy-2-phenyl-1H-indole] the same measures were 55.9 nM and 3.14.
Taken in the same sequence, the figures for `Cc1cccnc1NC(=S)Nc1ncccc1C` [C-6, 1,3-bis(3-methylpyridin-2-yl)thiourea] were 770 nM and 2.71.
With `O=C(Nc1ccc2ccccc2c1)c1cccc(F)c1` [C-8, 3-fluoro-N-(2-naphthyl)benzamide], the concentration giving a half-maximal response (EC50) in assay [1] (setting [5]) came to 70.5 nM. Also, the fold induction at 1 µM in assay [2] (setting [4]) was 2.79.
Taken in the same sequence, the figures for `Clc1ccccc1-c1nc(-c2ccncc2)no1` [C-10, Pifexole] were 332 nM and 2.72.
For `Nc1ccccc1C(=O)Nc1ccc(Cl)cc1Cl` [C-11, 2-amino-N-(2,4-dichlorophenyl)benzamide], the EC50 in assay [1] (setting [5]) was 706 nM. The fold induction at 1 µM in assay [2] (setting [4]) came out at 2.64.
Taken in the same sequence, the figures for `NC(=O)c1ccccc1OCC(=O)Nc1ccc(Cl)c(Cl)c1` [C-12, 2-[2-(3,4-Dichloroanilino)-2-oxoethoxy]benzamide] were 37.3 nM and 3.13.
For `O=C(Nc1ccc(Cl)c(Cl)c1)Nc1ccccc1O` [C-13, N-(3,4-dichlorophenyl)-N′-(2-hydroxyphenyl)urea] the same measures were 86.1 nM and 2.64.
For `O=C(Nc1ccc(Nc2ccccc2)cc1)Nc1ccccc1Cl` [C-14, 1-(4-Anilinophenyl)-3-(2-chlorophenyl)urea] the same measures were 42.1 nM and 3.03.
Consider `FC(F)(F)c1cccc(-c2nc3nc(Cl)c(Cl)nc3[nH]2)c1` [C-16, 5,6-dichloro-2-[3-(trifluoromethyl)phenyl]-1H-imidazo[4,5-b]pyrazine], for which the EC50 in assay [1] (setting [5]) was 52.1 nM. For the same molecule, the fold induction at 1 µM in assay [2] (setting [4]) is 2.82.
Taken in the same sequence, the figures for `CC(=NNc1nc2ccccc2s1)c1ccncn1` [C-18, 2-(2-(1-(pyrimidin-4-yl)ethylidene)hydrazinyl)benzo[d]thiazole] were 156 nM and 3.29.
In turn, `CC1=C(O)C(=O)C=C2C1=CC=C1[C@@]2(C)CC[C@@]2(C)[C@@H]3C[C@](C)(C(=O)O)CC[C@]3(C)CC[C@]12C` [C-19, Celastrol] yielded an EC50 in assay [1] (Homo sapiens) of 11.2 nM. Besides, the fold induction at 1 µM in assay [2] (24 h) was determined as 3.28.
For the molecule `COc1ccc(N=Nc2ccc(N)nc2N)cc1` [C-20, 3-[(4-Methoxyphenyl)azo]-2,6-pyridinediamine], the EC50 in assay [1] (setting [5]) is 84.4 nM. Besides, the fold induction at 1 µM in assay [2] (setting [4]) is 3.14.
In assay [1] (Homo sapiens), `Cc1ccc(NC(=O)c2cccc([N+](=O)[O-])c2O)c([N+](=O)[O-])c1` [C-21, 2-hydroxy-N-(4-methyl-2-nitrophenyl)-3-nitrobenzamide] gave an EC50 of 61.4 nM. In addition, the fold induction at 1 µM in assay [2] (24 h) came to 3.11.
In the case of `Cc1ccc(N/N=C2\C(=N)N(c3ccccc3)N=C2N)cc1` [C-24, (4Z)-5-imino-4-[(4-methylphenyl)hydrazinylidene]-1-phenylpyrazol-3-amine], the EC50 in assay [1] (setting [5]) turned out to be 2670 nM. In addition, the fold induction at 1 µM in assay [2] (setting [4]) stood at 3.03.
Taken in the same sequence, the figures for `Cc1cc(N(C)C)ccc1/N=N/c1ccc2ncccc2c1` [C-25, N,N,3-trimethyl-4-[(E)-6-quinolylazo]aniline] were 15.8 nM and 3.02.
Turning to `Cc1nc(-n2nc(-c3ccccc3)cc2-c2ccccc2)sc1C(=O)C=Cc1ccc(Cl)c(Cl)c1` [C-27, 3-(3,4-dichlorophenyl)-1-(2-(3,5-diphenyl-1H-pyrazol-1-yl)-4-methylthiazol-5-yl)prop-2-en-1-one], in assay [2] (setting [4]), the fold induction at 1 µM was found to be 2.89.
Turning to `CN(C)c1ccc(N=Nc2cccc3ccoc23)cc1` [C-28, 7-(p-N,N-Dimethylaminophenylazo)benzofuran], the EC50 in assay [1] (setting [5]) was ~6310 nM. Besides, in assay [2] (setting [4]), the fold induction at 1 µM is 2.87.
For the molecule `Cc1cccn2c(=O)[nH]nc12` [C-29], the concentration giving a half-maximal response (EC50) in assay [1] (setting [3]) came to 550 nM. In addition, in assay [2] (setting [4]), the “Fold Change (KLF15 reporter activity)” value came out at 2.8700 fold.
On to `c1ccc(-c2nnc(-c3ccccn3)s2)nc1` [C-30, 2,5-dipyridin-2-yl-1,3,4-thiadiazole], for which the EC50 in assay [1] (setting [5]) was found to be 335 nM. Besides, the fold induction at 1 µM in assay [2] (setting [4]) was found to be 2.86.
For `O=C1C(c2cnc3ccccc3n2)=C(O)c2ccccc21` [C-31, 1-Indenone, 3-hydroxy-2-(2-quinoxalinyl)-] the same measures were 45.9 nM and 2.85.
As to `CCOC(=O)c1sc2[n+](c1C)C(=O)/C(=C/c1ccc([N+](=O)[O-])cc1)S2.[Cl-]` [C-32, ethyl (2Z)-5-methyl-2-[(4-nitrophenyl)methylidene]-3-oxo-[1,3]thiazolo[2,3-b][1,3]thiazol-4-ium-6-carboxylate;chloride], the “Fold Change (KLF15 reporter activity)” value in assay [2] (setting [4]) is 2.8360 fold.
Regarding `O=C1C=C/C(=C2/Nc3ccccc3S2)C(O)=C1` [C-33, (4E)-4-(3H-1,3-benzothiazol-2-ylidene)-3-hydroxycyclohexa-2,5-dien-1-one], the EC50 in assay [1] (setting [5]) turned out to be 490 nM. Moreover, the fold induction at 1 µM in assay [2] (setting [4]) worked out at 2.75.
As to `O=C1Nc2ccccc2C1=NNC(=O)c1ccccc1O` [C-34, 2-hydroxy-N′-(2-oxo-1,2-dihydro-3H-indol-3-ylidene)benzohydrazide], in assay [1] (setting [5]), the EC50 was determined as 122 nM. The fold induction at 1 µM in assay [2] (setting [4]) was determined as 2.69.
On to `COc1ccc2c(n1)Sc1nc3ccccc3nc1N2` [C-35, 7-Methoxy-1,4,6-benzotriazaphenothiazine], for which, in assay [1] (setting [3]), the EC50 turned out to be 319 nM. For the same molecule, the “Fold Change (KLF15 reporter activity)” value in assay [2] (setting [4]) came to 2.6597 fold.
Regarding `O=C(NC(=S)Nc1ccccn1)c1ccccc1` [C-36, N-(pyridin-2-ylcarbamothioyl)benzamide], in assay [1] (setting [5]), the EC50 came out at 292 nM. In assay [2] (setting [4]), the fold induction at 1 µM amounted to 2.64.
For `CN(C)c1ccc(N=Nc2ccccn2)cc1` [C-37, 4-(2-pyridylazo)-n,n-dimethylaniline], in assay [1] (setting [3]), the 50% effective concentration (EC50) was determined as 27 nM. Further, in assay [2] (setting [4]), the “Fold Change (KLF15 reporter activity)” value is listed as 2.6148 fold.
For `O=C(Nc1cccc([N+](=O)[O-])c1)c1ccc2ccccc2c1O` [C-38, 2-<3-Nitro-phenylcarbamoyl>-naphth-1-ol], in assay [1] (setting [3]), the EC50 was determined as 145 nM. In assay [2] (setting [4]), the “Fold Change (KLF15 reporter activity)” value is recorded as 2.6069 fold.
Consider `Cc1csc(N=Nc2ccc(N(C)C)cc2)[n+]1[O-]` [C-39, N,N-dimethyl-4-[(4-methyl-3-oxido-1,3-thiazol-3-ium-2-yl)diazenyl]aniline], for which the EC50 in assay [1] (setting [5]) was ~6890 nM. In addition, the fold induction at 1 µM in assay [2] (setting [4]) stood at 2.6.
For `COc1ccc(C(C#N)=Cc2ccccn2)cc1` [C-40, 2-(4-methoxyphenyl)-3-pyridin-2-ylprop-2-enenitrile] the same measures were 546 nM and 2.6.
Taken in the same sequence, the figures for `COc1cccc2nc3cc(C)c(C)cc3nc12` [C-41, 1-Methoxy-7,8-dimethylphenazine] were 215 nM and 2.59.
Consider `O=C1C(=Cc2ccc([N+](=O)[O-])cc2)Sc2scc(-c3cccc([N+](=O)[O-])c3)[n+]21` [C-42, Thiazolo[2,3-b]thiazolium, 2,3-dihydro-2-[(4-nitrophenyl)methylene]-5-(3-nitrophenyl)-3-oxo-, chloride], for which the fold induction at 1 µM in assay [2] (24 h) is 2.58.
As for “Tin(IV), chlorotriphenyl[1-(4-ethoxyphenyl)-3-cyanoureato]-, hydrogen, trimethylamine [C-17]”, in assay [2] (setting [4]), the “Fold Change (KLF15 reporter activity)” value is 4.6159 fold.
